Drawing on patent US20160362416A1, “ANTIVIRAL COMPOUNDS” (Gilead Sciences, Inc., priority 2012, published 2016), this text covers EC50 and bioavailability for five compounds.

Molecules are shown by their SMILES.

In data set [1] the test system is Y93N in genotype 1a NS5A replicon. Kind of data set: Resistance mutant replicon assay, genotype 1a NS5A Y93N. The class given is cell-based, HCV. The note with it: Hepatitis C virus, read-out: 1a Y93N (nM). Summed up:
(§1)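 Renilla luciferase signal after 72 h compound exposure gave EC50 via non-linear regression. Cells were Huh-7-derived cured-51 transiently transfected with replicon RNA carrying the NS5A mutation introduced by site-directed mutagenesis into 1a or 1b Pi-RLuc replicons.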
(A replicon is a self-replicating genome or part of one, used to study replication in cells.)

A short description of data set [2]: IV and PO single dose pharmacokinetic studies in SD rats. The class given is in vivo. To be noted: Sprague-Dawley, rat, plasma, male SD rats, IV infusion 1 mg/kg, oral gavage 2 mg/kg, read-out: Rat % F. Summed up:
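Fasted male Sprague-Dawley rats (n=3/group) dosed IV by 30-min jugular infusion at 1 mg/kg or by oral gavage at 2 mg/kg, in ethanol/PEG 400 vehicles at pH 2.0–2.2. Serial plasma to 24 h quantified by LC/MS/MS (SRM); non-compartmental analysis, linear-trapezoidal AUC, %F as oral vs IV AUC.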

Data set [3] has as its system NS5A chimeric genotype 2a JFH-1 replicon with genotype 2b MD2b-1 strain NS5A gene (M31). Kind of data set: HCV genotype 2b NS5A chimeric replicon assay, transient (t). Type of data set: cell-based. The note with it: Hepatitis C virus, 72 h, read-out: 2b (t) (nM). Summed up:
(§2)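 Stable 1b Con1 RLuc replicon cells, or Huh-Lunet cells transiently transfected with chimeric replicons (Con1 backbone carrying 3a S52 or 4a ED43 NS5A; JFH-1 backbone carrying 2b MD2b-1 NS5A, M31), treated with 3-fold dilutions for 72 h. Renilla luciferase read after lysis; EC50 by non-linear regression.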

Data set [4] deals with L31V/Y93H in genotype 1b NS5A replicon. Kind of data set: Resistance mutant replicon assay, genotype 1b NS5A L31V/Y93H. Type of data set: cell-based, HCV. To be noted: Hepatitis C virus, read-out: 1b L31V/Y93H (nM). An outline of the steps: as §1
For data set [5], the system named is stable HCV 1b RLuc replicon cells (genotype 1b Con1 replicon). Briefly: HCV genotype 1b RLuc replicon reporter assay. Type of data set: cell-based. The note with it: Hepatitis C virus; stable genotype 1b Con1 RLuc replicon cells, 72 hours. An outline of the steps: as §2
For data set [6], the system named is NS5A chimeric genotype 2a JFH-1 replicon with genotype 2b MD2b-1 strain NS5A gene (M31). Kind of data set: HCV genotype 2b NS5A chimeric replicon assay, stable (s). Type of data set: cell-based. The note with it: Hepatitis C virus, 72 h, read-out: 2b (s) (nM).
For data set [7], the system named is Q30E in genotype 1a NS5A replicon. Briefly: Resistance mutant replicon assay, genotype 1a NS5A Q30E. Type of data set: cell-based, HCV. To be noted: Hepatitis C virus, read-out: 1a Q30E (nM). An outline of the steps: as §1
In data set [8] the test system is Y93H in genotype 3a NS5A replicon. Kind of data set: Resistance mutant replicon assay, genotype 3a NS5A Y93H. The class given is cell-based, HCV. The note with it: Hepatitis C virus, read-out: 3a Y93H (nM). Summed up:
as §1

Data set [9] deals with NS5A chimeric genotype 1b Con1 replicon with genotype 3a S52 strain NS5A gene. Kind of data set: HCV genotype 3a NS5A chimeric replicon assay. Type of data set: cell-based. To be noted: Hepatitis C virus, 72 h, read-out: 3a (nM). Summed up: as §2
Data set [10] relates to Y93H in genotype 1a NS5A replicon. Kind of data set: Resistance mutant replicon assay, genotype 1a NS5A Y93H. Type of data set: cell-based, HCV. The note with it: Hepatitis C virus, read-out: 1a Y93H (nM). An outline of the steps:
as §1

In the case of `COC(=O)N[C@H](C(=O)N1[C@@H](C)CC[C@H]1c1nc2ccc3cc4c(cc3c2[nH]1)OCc1cc(-c2cnc([C@@H]3CC[C@H](C)N3C(=O)[C@@H](NC(=O)OC)[C@H]3C[C@@H](C)O[C@@H](C)C3)[nH]2)ccc1-4)C(C)C` [Example AO, Methyl {(2S)-1-[(2S,5S)-2-(9-{2-[(2S,5S)-1-{(2S)-2-[(2R,6S)-2,6-dimethyltetrahydro-2H-pyran-4-yl]-2-[(methoxycarbonyl)amino]acetyl}-5-methylpyrrolidin-2-yl]-1H-imidazol-5-yl}-1,11-dihydroisochromeno[4′,3′:6,7]naphtho[1,2-d]imidazol-2-yl)-5-methylpyrrolidin-1-yl]-3-methyl-1-oxobutan-2-yl}carbamate], the EC50 in [1] worked out at 9.03 nM; in [3] it was 0.015 nM; in [4], 17.5 nM; in [5], 0.015 nM; in data set [6], 0.045 nM; in data set [7] it was 1.78 nM. In addition, the figures for the EC50 in data set [8] and in data set [9] were 9.06 nM and 0.021 nM, respectively. In addition, in data set [2], the bioavailability came out at 50.3%.

Regarding `CC[C@H](C)[C@H](NC(=O)OC)C(=O)N1[C@@H](C)CC[C@H]1c1ncc(-c2ccc3c(c2)COc2cc4c(ccc5nc([C@@H]6CC[C@H](C)N6C(=O)[C@@H](NC(=O)OC)C6CCOCC6)[nH]c54)cc2-3)[nH]1` [Comp 4, reference compound], the EC50 is 1.06 nM in data set [1]; 0.028 nM in [5]; 0.074 nM in [6]; 0.432 nM in [7]; 0.695 nM in data set [8]; 0.043 nM in data set [9]. In data set [10], the EC50 was 0.978 nM. Besides, the bioavailability in [2] was 22.1%.

Turning to `CC[C@H](C)[C@H](NC(=O)OC)C(=O)N1[C@@H](C)CC[C@H]1c1nc2ccc3cc4c(cc3c2[nH]1)OCc1cc(-c2cnc([C@@H]3CC[C@H](C)N3C(=O)[C@@H](NC(=O)OC)C3CCOCC3)[nH]2)ccc1-4` [Comp 12, reference compound], the EC50 is 1.38 nM in [1]; 0.097 nM in data set [4]; 0.022 nM in data set [5]; 0.07 nM in [6]; 17.7 nM in [8]; 0.026 nM in data set [9]. In addition, the EC50 in data set [10] is 1.24 nM. Further, in data set [2], the bioavailability was determined as 5.64%.

In the case of `CC[C@H]1CC[C@@H](c2nc3ccc4cc5c(cc4c3[nH]2)OCc2cc(-c3cnc([C@@H]4CC[C@H](C)N4C(=O)[C@@H](NC(=O)OC)C(C)C)[nH]3)ccc2-5)N1C(=O)[C@@H](NC(=O)OC)C1CCOCC1` [Comp 3, reference compound], the bioavailability in data set [2] is 46.6%. For the same compound, the EC50 in [5] was 0.026 nM; in [6], 0.095 nM; in data set [7], 0.526 nM; in data set [8] it was 14.1 nM; in [9], 0.065 nM; in data set [10] it was 2.54 nM.

For the compound `COC[C@H]1C[C@@H](c2ncc(-c3ccc4c(c3)COc3cc5c(ccc6nc([C@@H]7CC[C@H](C)N7C(=O)[C@@H](NC(=O)OC)C7C[C@@H](C)O[C@H](C)C7)[nH]c65)cc3-4)[nH]2)N(C(=O)[C@@H](NC(=O)OC)C2C[C@@H](C)O[C@H](C)C2)C1` (stereo partly drawn) [Example BH, Methyl {(1S)-1-[(2R,6R)-2,6-dimethyltetrahydro-2H-pyran-4-yl]-2-[(2S,5S)-2-(9-{2-[(2S,4S)-1-{(2S)-2-[(2R,6R)-2,6-dimethyltetrahydro-2H-pyran-4-yl]-2-[(methoxycarbonyl)amino]acetyl}-4-(methoxymethyl)pyrrolidin-2-yl]-1H-imidazol-5-yl}-1,11-dihydroisochromeno[4′,3′:6,7]naphtho[1,2-d]imidazol-2-yl)-5-methylpyrrolidin-1-yl]-2-oxoethyl}carbamate], the EC50 in data set [1] worked out at 0.082 nM; in data set [5], 0.118 nM; in [6], 0.027 nM; in data set [8] it was 0.612 nM; in data set [9] it was 0.056 nM; in [10], 0.04 nM. In data set [2], the bioavailability was determined as 2.7%.
